The test system of the assay is SREBP pathway. The assay is described as follows: SREBP luciferase reporter gene system (SRE-luciferase assay) in Huh-7/SRE-Luc cells. In kind it is cell-based. The settings on record: Homo sapiens, sterol-deficient medium, compound treatment 16 hours, luciferase/GFP ratio. The protocol:
Huh-7/SRE-Luc, a human hepatocellular carcinoma cell line, was grown in a culture medium containing DMEM, 10% fetal bovine serum, 100 units/mL penicillin, 100 µg/mL streptomycin, and 200 μg/mL G418.
The Huh-7/SRE-Luc cell line is a human hepatocellular carcinoma cell line Huh-7 stably expressing LDLR promoter-luciferase and green fluorescent protein (GFP). The LDLR promoter region contains a sterol regulatory element (SRE) that can effectively and sensitively respond to the regulation of the transcription factor SREBP. The GFP signal serves as an internal reference to indicate changes in cell number. Therefore, this cell line can be used to screen for active small molecules that regulate the SREBP signaling pathway. […] Cells were incubated in a sterol-deficient medium (5% lipoprotein-deficient serum, 2 μM Lovastatin, 10 μM mevalonate) and treated with corresponding concentrations of compounds for 16 hours. After compound treatment, the cells were lysed with lysis buffer (E397A, Promega), followed by the addition of luciferase substrate (E1500, Promega). The SRE-driven luciferase activity was measured using a BioTek Synergy HTX microplate reader (including but not limited to this type of instrument). The fluorescence intensity of enhanced green fluorescent protein (EGFP) was also measured using the BioTek microplate reader (including but not limited to this type of instrument) and used as an internal reference. The ratio of SRE-driven luciferase activity to GFP fluorescence intensity was used as an indicator of SREBP pathway activity. The test data of each test compound was analyzed using Prism software to obtain the IC50 parameter of the compound.
The inhibitory effect of the compounds of the present disclosure on the SREBP pathway was tested by the method of bioassay example 2. The concentration gradient of each compound was designed as 0.01, 0.03, 0.1, 0.3, 1.0, 3.0, and […], with DMSO as a vehicle control.
Usually IC50 stands for the concentration that gives 50% inhibition. Regarding `C[C@H](CCCC(O)c1ccccc1)[C@H]1CC[C@H]2[C@@H]3CC[C@H]4[C@@H](O)[C@@H](O)CC[C@]4(C)[C@H]3CC[C@]12C` (stereo partly drawn) [compound 305, 24-(hydroxyphenylmethyl)-5α-cholan-3β,4β-diol], the IC50 came out at 0.119 µM. With `COc1ccccc1C(O)CCC[C@@H](C)[C@H]1CC[C@H]2[C@@H]3CC[C@H]4C[C@@H](O)CC[C@]4(C)[C@H]3CC[C@]12C` (stereo partly drawn) [compound 312, 24-[hydroxy(2-methoxyphenyl)methyl]-5α-cholan-3β-ol] the figure was 0.18 µM; with `C[C@H](CCCC1(O)CC1)[C@H]1CC[C@H]2[C@@H]3CC[C@H]4C[C@@H](O)CC[C@]4(C)[C@H]3CC[C@]12C` [compound 253, 24-(hydroxycyclopropyl)-5α-cholan-3β-ol], 0.187 µM; with `C[C@H](CCCC(O)c1ccc(F)cc1)[C@H]1CC[C@H]2[C@@H]3CC[C@H]4[C@@H](O)[C@@H](O)CC[C@]4(C)[C@H]3CC[C@]12C` (stereo partly drawn) [compound 316, 24-[(4-fluorophenyl)(hydroxy)methyl]-5α-cholan-3β,4β-diol], 0.1 µM. With `CCC(O)CCC[C@@H](C)[C@H]1CC[C@H]2[C@@H]3CC[C@H]4[C@@H](O)[C@@H](O)CC[C@]4(C)[C@H]3CC[C@]12C` (stereo partly drawn) [compound 241, 24-(1-hydroxypropyl)-5α-cholan-3β,4β-diol], the IC50 is 0.328 µM. The figure for `C[C@H](CCCC(C)(C)O)[C@H]1CC[C@H]2[C@@H]3CC[C@H]4CC(CO)CC[C@]4(C)[C@H]3CC[C@]12C` (stereo partly drawn) [compound 308, 3-(hydroxymethyl)-5α-cholest-25-ol] is 0.979 µM. With `C[C@H](CCCC(C)(C)O)[C@H]1CC[C@H]2[C@@H]3CC(=O)C4(O)C[C@@H](O)CC[C@]4(C)[C@H]3CC[C@]12C` (stereo partly shown) [compound 225, 3P,5,25-trihydroxycholest-6-one] the figure was 0.667 µM; with `COc1ccccc1[C@H](O)CCC[C@@H](C)[C@H]1CC[C@H]2[C@@H]3CC[C@H]4[C@@H](O)[C@@H](O)CC[C@]4(C)[C@H]3CC[C@]12C` (single isomer, unassigned) [compound 325, 24-[S-hydroxy(2-methoxyphenyl)methyl]-5α-cholan-3β,4β-diol or 24-[R-hydroxy(2-methoxyphenyl)methyl]-5α-cholan-3β,4β-diol], 0.09 µM.

Take `C[C@H](CCCC(C)(C)O)[C@H]1CC[C@H]2[C@@H]3CC[C@H]4C(O)(C(F)(F)F)[C@@H](O)CC[C@]4(C)[C@H]3CC[C@]12C` (stereo partly drawn) [compound 246, 4-(trifluoromethyl)-5α-cholest-3β,4,25-triol]: the IC50 was determined as 0.988 µM. With `C[C@H](CCCC(C)(C)O)[C@H]1CC[C@H]2[C@@H]3CCC4(F)C[C@@H](O)CC[C@]4(C)[C@H]3CC[C@]12C` (stereo partly drawn) [compound 266, 5-fluorocholest-3β,25-diol] the figure was 0.176 µM. The figure for `C[C@H](CCCC(O)C1CC1)[C@H]1CC[C@H]2[C@@H]3CC[C@H]4C[C@@H](O)CC[C@]4(C)[C@H]3CC[C@]12C` (stereo partly drawn) [compound 217, 24-[cyclopropyl(hydroxy)methyl]-5α-cholan-3β-ol] is 0.329 µM; for `C[C@H](CCN(C)C(=O)c1ccccc1F)[C@H]1CC[C@H]2[C@@H]3CC[C@H]4C[C@@H](O)CC[C@]4(C)[C@H]3CC[C@]12C` [compound 268, 2-fluoro-N-[(3R)-3-[(1R,3aS,3bR,5aS,7S,9aS,9bS,11aR)-7-hydroxy-9a,11a-dimethylhexadecahydro-1H-cyclopenta[1,2-a]phenanthren-1-yl]butyl]-N-methylbenzamide] it is 0.825 µM; for `C[C@H](CCCC(C)(C)O)[C@H]1CC[C@H]2[C@@H]3C(O)C[C@H]4[C@@H](O)[C@@H](O)CC[C@]4(C)[C@H]3CC[C@]12C` (stereo partly drawn) [compound 231, cholest-3β,4p,7,25-tetraol] it is 1.03 µM.

As to `CC(O)C1CC[C@@]2(C)[C@@H](CC[C@@H]3[C@@H]2CC[C@]2(C)[C@@H]([C@H](C)CCCC(C)(C)O)CC[C@@H]32)C1` (stereo partly drawn) [compound 290, 3-(1-hydroxyethyl)-5α-cholest-25-ol], the IC50 was found to be 0.699 µM. The figure for `C[C@H](CCCC(O)c1ccccc1Cl)[C@H]1CC[C@H]2[C@@H]3CC[C@H]4[C@@H](O)[C@@H](O)CC[C@]4(C)[C@H]3CC[C@]12C` (stereo partly drawn) [compound 322, 24-[(2-chlorophenyl)(hydroxy)methyl]-5α-cholan-3β,4β-diol] is 0.61 µM; for `C[C@H](CCCC(C)(C)O)[C@H]1CC[C@H]2[C@@H]3CC(O)C4(O)C[C@@H](O)CC[C@]4(C)[C@H]3CC[C@]12C` (stereo partly drawn) [compound 207, cholest-3β,5,6,25-tetraol] it is 3.09 µM; for `C[C@H](CCCC(C)(C)O)[C@H]1CC[C@H]2[C@@H]3/C(=N/O)C[C@H]4C[C@@H](O)CC[C@]4(C)[C@H]3CC[C@]12C` [compound 285, [(1R,3aS,3bR,4E,5aS,7S,9aS,9bS,11aR)-7-hydroxy-1-[(2R)-6-hydroxy-6-methylheptan-2-yl]-9a,11a-dimethylhexadecahydro-1H-cyclopenta[1,2-a]phenanthren-4-ylidene]hydroxylamine] it is 0.793 µM.

On to `C[C@H](CCCC(O)C(F)(F)F)[C@H]1CC[C@H]2[C@@H]3CC[C@H]4C[C@@H](O)CC[C@]4(C)[C@H]3CC[C@]12C` (stereo partly drawn) [compound 218, 24-(2,2,2-trifluoro-1-hydroxyethyl)-5α-cholan-3β-ol], for which the half-maximal inhibitory concentration (IC50) turned out to be 0.296 µM. Regarding `C[C@H](CCCC(O)c1ccccc1F)[C@H]1CC[C@H]2[C@@H]3C(=O)C[C@H]4[C@@H](O)[C@@H](O)CC[C@]4(C)[C@H]3CC[C@]12C` (stereo partly drawn) [compound 271, 24-[(2-fluorophenyl)(hydroxy)methyl]-4β-hydroxy-3β-hydroxy-5α-cholan-7-one], the IC50 was 0.139 µM. The figure for `C[C@H](CCCC(C)(C)O)[C@H]1CC[C@H]2[C@@H]3CC(=O)[C@H]4C[C@@H](O)CC[C@]4(C)[C@H]3CC[C@]12C` [compound 255, 3P,25-dihydroxy-5α-cholest-6-one] is 0.452 µM; for `Cc1ccccc1C(O)CCC[C@@H](C)[C@H]1CC[C@H]2[C@@H]3CC[C@H]4[C@@H](O)[C@@H](O)CC[C@]4(C)[C@H]3CC[C@]12C` (stereo partly drawn) [compound 323, 24-[hydroxy(2-methylphenyl)methyl]-5α-cholan-3β,4β-diol] it is 0.25 µM.

In the case of `C[C@H](CCCC(C)(C)O)[C@H]1CC[C@H]2[C@@H]3CC[C@H]4C(C)(O)[C@@H](O)CC[C@]4(C)[C@@]3(C)CC[C@]12C` (stereo partly drawn) [compound 254, 4-methyl-5α-cholest-3β,4,25-triol], the IC50 was determined as 6.19 µM. With `C[C@H](CCCC(C)(C)O)[C@H]1CC[C@H]2[C@@H]3CCC4(O)C[C@@H](O)CC[C@]4(C)[C@H]3CC[C@]12C` (stereo partly shown) [compound 205, cholest-30,5,25-triol] the figure was 0.817 µM; with `C[C@H](CCCC(O)c1cc(F)cc(F)c1)[C@H]1CC[C@H]2[C@@H]3CC[C@H]4[C@@H](O)[C@@H](O)CC[C@]4(C)[C@H]3CC[C@]12C` (stereo partly drawn) [compound 282, 24-[(3,5-difluorophenyl)(hydroxy)methyl]-5α-cholan-3β,4β-diol], 0.117 µM. `COc1ccccc1C(O)CCC[C@@H](C)[C@H]1CC[C@H]2[C@@H]3C(=O)C[C@H]4[C@@H](O)[C@@H](O)CC[C@]4(C)[C@H]3CC[C@]12C` (stereo partly drawn) [compound 320, 4β-hydroxy-3β-hydroxy-24-[hydroxy(2-methoxyphenyl)methyl]-5α-cholan-7-one]: the IC50 was found to be 0.16 µM. With `C[C@H](CCCC(C)(C)O)[C@H]1CC[C@H]2[C@@H]3CC[C@]4(O)[C@@H](O)[C@@H](O)CC[C@]4(C)[C@H]3CC[C@]12C` (single isomer, unassigned) [compound 248, cholest-3β,4,5,25-tetraol], the IC50 was 0.766 µM. The figure for `C[C@H](CCCC(C)(C)O)[C@H]1CC[C@H]2[C@@H]3CC[C@H]4C[C@@H](OC(=O)CC(=O)O)CC[C@]4(C)[C@H]3CC[C@]12C` [compound 293, 3-{[(1R,3aS,3bR,5aS,7S,9aS,9bS,11aR)-1-[(2R)-6-hydroxy-6-methylheptan-2-yl]-9a,11a-dimethylhexadecahydro-1H-cyclopenta[1,2-a]phenanthren-7-yl]oxy}-3-oxopropanoic acid] is 0.136 µM; for `C[C@H](CCCC1(O)CC1)[C@H]1CC[C@H]2[C@H]3[C@H](CC[C@]12C)[C@@]1(C)CC[C@H](O)C[C@@H]1CC3(F)F` [compound 288, (1R,3aS,5aR,7S,9aS,11aR)-4,4-difluoro-1-[(2R)-5-(hydroxycyclopropyl)pentan-2-yl]-9a,11a-dimethylhexadecahydro-1H-cyclopenta[1,2-a]phenanthrene-7-ol] it is 0.308 µM.

The record behind these values is patent US20250154193A1, “STEROID COMPOUND, AND PREPARATION METHOD THEREFOR AND APPLICATION THEREOF” (CHOLESGEN (SHANGHAI) CO., LTD., priority 2022, published 2025).
